From the METLIN SMRT retention time set (Domingo-Almenara et al. 2019)

Experiment: gradient 5% acetonitrile 3 min, to 50% in 2 min, to 85% in 15 min, held 3 min, 100 µL/min
Settings: column: Zorbax Extend-C18 2.1 x 50 mm; eluents: water / acetonitrile, 0.1% formic acid
Outline: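 In both positive and negative ionization mode, a quadrupole time-of-flight mass spectrometer coupled to HPLC analyzed pure standards run in mixtures of ~100 molecules. The Zorbax Extend-C18 column (2.1 × 50 mm, 1.8 μm) was operated at 100 μL/min with water and acetonitrile, each containing 0.1% formic acid. The dead volume was 40 μL and the dwell volume 900 μL. Retention time came from adduct peaks that were computationally picked and individually inspected by hand.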

Compound	RP-LC retention time
COc1ccccc1-c1noc(-c2nnn3c2COC(c2ccc(F)cc2)C3)n1 (centres undefined)	1040 s
CCCNC(=O)Cc1csc(-n2nc(C)c(Cl)c2C)n1	904 s
Cc1cccc(C)c1NC(=O)Cn1nc2cc(-c3ccccc3)nc(C)n2c1=O	832 s
CCN(CC)c1ccc(C(=O)O)cc1NC(=O)c1cccs1	835 s
CC(C)NC(=O)c1ccc(-c2ccc(N3CCSCC3)nc2)cc1	663 s
O=C(NCC1CCCO1)C(=O)NCC1(O)CCOCC1 (centres undefined)	540 s
CCc1nc(-c2csc(S(=O)(=O)N3CCC(C(=O)Nc4ccc(C)c(C)c4)CC3)c2)no1	660 s
CCc1cc(C(=O)N2CCN(c3ccccn3)CC2)nc2ccnn12	573 s
O=C(c1ccco1)N1CCN(C(=O)C2CCN(c3nc4ccccc4[nH]c3=O)CC2)CC1	631 s
Cc1nnc(N2CCC(C(=O)N3CCN(C)CC3)CC2)c2nn(-c3ccccc3)c(C)c12	573 s
OC[C@@H]1CN(Cc2cn[nH]c2-c2ccc(F)cc2)C[C@H]1c1ccccn1	586 s
CCCN(CCC)C1CCc2cc(O)c(O)cc2C1 (centres undefined)	641 s
O=C(NCc1[nH]nc2ccccc12)c1ccc(Cl)cc1	779 s
CN(CC1CCOCC1)C(=O)Cc1ccccc1Cl	771 s
O=C(NCCc1ccccc1)Nc1cnn(-c2ncc(N3CCCC3)cn2)c1	778 s
COC(=O)c1c(C)c(C(=O)C(C)N(C(=O)c2ccc(Cl)cc2)C2CC2)c(C)n1C (centres undefined)	1030 s
COc1ccc(C(=O)N2CCC3(CC2)NC(=O)c2cc(F)ccc2N3C)c(OC)c1	734 s
O=C(Cn1c(=O)oc2ccccc21)NCCc1csc2nc(-c3ccccc3F)nn12	746 s
CNC(=O)c1cc(N2CCOCC2)nc2c(C)cccc12	704 s
CSc1ccc(-c2nc3cc(C)ccn3c2Nc2ccc3c(c2)OCO3)cc1	748 s
CC12C=CC(O1)C1C(=O)N(c3ccc(N4CCOCC4)cc3)C(=O)C12 (centres undefined)	662 s
Cc1cc(-n2nnc(C(=O)N3CCC(N4CCCCC4)CC3)c2-c2ccncc2)ccc1F	602 s

Compound	RP-LC retention time
CC(Oc1ccc(Cl)cc1Cl)C(=O)NCCn1ncccc1=O (centres undefined)	722 s
O=C(CN1C(=O)CCc2cc(Br)ccc21)N1CCN(c2ccc(F)cc2)CC1	949 s
O=C(c1ccc2c(=O)n3c(nc2c1)CCCC3)N1CCN(c2ccccn2)CC1	564 s
O=C(NC(c1nnc(-c2ccccc2)o1)c1ccccc1Cl)c1ccco1 (centres undefined)	911 s
COc1ccc(NC(=O)Cn2nc3n(c2=O)CCCC3)c(OC)c1	642 s
Cn1c(=O)sc2cc(S(=O)(=O)N3CCC(C(=O)Nc4cccc(C#N)c4)CC3)ccc21	860 s
CCc1nc(-c2ccc(S(=O)(=O)N3CCC(C(=O)Nc4ccc5c(c4)OCCO5)CC3)cc2)no1	929 s
O=c1n(Cc2ccc(Cl)cc2)nc2c(S(=O)(=O)N3CCc4ccccc4C3)cccn12	1020 s
Cc1ccc(-c2noc(C3CCCN3S(=O)(=O)c3ccc(C)c(C)c3)n2)cc1 (centres undefined)	1260 s
NS(=O)(=O)c1ccc(NS(=O)(=O)c2ccc3onc(C(=O)N4CCCCC4)c3c2)cc1	782 s
O=C(Nc1ccccc1F)C1CCN(S(=O)(=O)c2cc(C(=O)N3CCOCC3)cs2)CC1	742 s
CCCC(=O)Nc1ccc2c(c1)nc(CN1CCN(S(C)(=O)=O)CC1)n2CC	608 s
Cc1ccc(-n2nc(C(=O)N3CCN(c4ccccn4)CC3)c3ncn(C)c(=O)c32)cc1	608 s
Cc1cc(C)cc(NS(=O)(=O)c2c(C)sc(C)c2-c2n[nH]c(C)c2C)c1	1110 s
NC(=O)C1CCN(C(=O)C2COC3(CCCCC3)N2C(=O)c2ccccc2)CC1 (centres undefined)	606 s
CC1CCN(C(=O)c2cn(-c3cc(N4CCC(C)CC4)ncn3)cn2)CC1	1030 s
O=C(Cc1c[nH]c2ccccc12)NC1(c2nc(-c3ccncc3)no2)CCCCC1	807 s
CCC(=O)Oc1ccc(N2C(=O)CCC2=O)cc1	671 s
Cc1ccc(S(=O)(=O)N2CCCC(Cn3c(C)nc4cccnc43)C2)c(C)c1 (centres undefined)	747 s
Cc1cc(-c2nnc(NC(=O)c3cc(Cl)sc3Cl)o2)n(C)n1	772 s
COc1ccc(-c2cc3n(n2)CCCN(C(=O)NCC2CCCO2)C3)cc1 (centres undefined)	681 s
CCCNC(=O)Cc1c(C)nc2nc(-c3ccc(C(C)(C)C)cc3)nn2c1C	920 s
